# Results as given in patent US20120190669A1, “OXINDOLE COMPOUNDS” (CYLENE PHARMACEUTICALS, INC., priority 2008, published 2012).
# Read-outs that look alike come from different tables or passages of the source.
# Legend:
# MV-4-11 = assay: Alamar Blue cell proliferation assay, MV-4-11; type: cell-based; conditions: Homo sapiens
# Protocol: (§1) A representative cell-proliferation assay protocol using Alamar Blue dye (stored at 4° C., use 20 ul per well) is described hereafter.
# (§2) 96-Well Plate Setup and Compound Treatment
# (§3) a. Split and trypsinize cells.
# (§4) b. Count cells using hemocytometer.
# (§5) c. Plate 4,000-5,000 cells per well in 100 μl of medium and seed into a 96-well plate according to the following plate layout. Add cell culture medium only to wells B10 to B12. Wells B1 to B9 have cells but no compound added.
# (§6) d. Add 100 μl of 2× drug dilution to each well in a concentration shown in the plate layout above. At the same time, add 100 μl of media into the control wells (wells 1310 to B12). Total volume is 200 μl/well.
# (§7) e. Incubate four (4) days at 37° C., 5% CO2 in a humidified incubator.
# (§8) f. Add 20 μl Alamar Blue reagent to each well.
# (§9) g. Incubate for four (4) hours at 37° C., 5% CO2 in a humidified incubator.
# (§10) h. Record fluorescence at an excitation wavelength of 544 nm and emission wavelength of 590 nm using a microplate reader.
# (§11) In the assays, cells are cultured with a test compound for approximately four days, the dye is then added to the cells and fluorescence of […] dye is detected after approximately four hours. Different types of cells can be utilized in the assays (e.g., HCT-116 human colorectal carcinoma cells, PC-3 human prostatic cancer cells and MiaPaca human pancreatic carcinoma cells).
# recombinant PIM-1 = recombinant PIM-1 (Homo sapiens, UniProt P11309); assay: PIM-1 kinase assay (radiometric, 15 uM ATP, DMSO 4%); type: biochemical
# [1] = tested on: PC-3 human prostatic cancer cells; assay: Alamar Blue cell proliferation assay, PC3; type: cell-based
# Protocol: as §1, §2, §3, §4, §5, §6, §7, §8, §9, §10, §11
# [2] = tested on: MiaPaca human pancreatic carcinoma cells; assay: Alamar Blue cell proliferation assay, MiaPaCa; type: cell-based
# Protocol: as §1, §2, §3, §4, §5, §6, §7, §8, §9, §10, §11
# K-562 = assay: Alamar Blue cell proliferation assay, K-562; type: cell-based; conditions: Homo sapiens
# Protocol: as §1, §2, §3, §4, §5, §6, §7, §8, §9, §10, §11
# MDAMB-231 = assay: Alamar Blue cell proliferation assay, MDAMB-231; type: cell-based; conditions: Homo sapiens, MDA-MB-231, Table 3, read-out: AB: MDAMB-231
# Protocol: as §1, §2, §3, §4, §5, §6, §7, §8, §9, §10, §11
# phospho FLT3 = phospho FLT3 cell-based data; conditions: Table 4
# phospho BAD = phospho BAD cell-based data; conditions: Table 4
# THP-1 = assay: Alamar Blue cell proliferation assay, THP-1; type: cell-based; conditions: Homo sapiens, Table 4, read-out: AB: THP-1
# Protocol: as §1, §2, §3, §4, §5, §6, §7, §8, §9, §10, §11
# recombinant human FLT-3 = biological target: T1, recombinant human FLT-3 (Homo sapiens, UniProt P36888); assay: FLT-3 kinase activity, cell free in vitro assay; type: biochemical; conditions: Table 7; 10 uM ATP; read-out: FLT3_RB: IC50
# T1 sequence (P36888 27-993): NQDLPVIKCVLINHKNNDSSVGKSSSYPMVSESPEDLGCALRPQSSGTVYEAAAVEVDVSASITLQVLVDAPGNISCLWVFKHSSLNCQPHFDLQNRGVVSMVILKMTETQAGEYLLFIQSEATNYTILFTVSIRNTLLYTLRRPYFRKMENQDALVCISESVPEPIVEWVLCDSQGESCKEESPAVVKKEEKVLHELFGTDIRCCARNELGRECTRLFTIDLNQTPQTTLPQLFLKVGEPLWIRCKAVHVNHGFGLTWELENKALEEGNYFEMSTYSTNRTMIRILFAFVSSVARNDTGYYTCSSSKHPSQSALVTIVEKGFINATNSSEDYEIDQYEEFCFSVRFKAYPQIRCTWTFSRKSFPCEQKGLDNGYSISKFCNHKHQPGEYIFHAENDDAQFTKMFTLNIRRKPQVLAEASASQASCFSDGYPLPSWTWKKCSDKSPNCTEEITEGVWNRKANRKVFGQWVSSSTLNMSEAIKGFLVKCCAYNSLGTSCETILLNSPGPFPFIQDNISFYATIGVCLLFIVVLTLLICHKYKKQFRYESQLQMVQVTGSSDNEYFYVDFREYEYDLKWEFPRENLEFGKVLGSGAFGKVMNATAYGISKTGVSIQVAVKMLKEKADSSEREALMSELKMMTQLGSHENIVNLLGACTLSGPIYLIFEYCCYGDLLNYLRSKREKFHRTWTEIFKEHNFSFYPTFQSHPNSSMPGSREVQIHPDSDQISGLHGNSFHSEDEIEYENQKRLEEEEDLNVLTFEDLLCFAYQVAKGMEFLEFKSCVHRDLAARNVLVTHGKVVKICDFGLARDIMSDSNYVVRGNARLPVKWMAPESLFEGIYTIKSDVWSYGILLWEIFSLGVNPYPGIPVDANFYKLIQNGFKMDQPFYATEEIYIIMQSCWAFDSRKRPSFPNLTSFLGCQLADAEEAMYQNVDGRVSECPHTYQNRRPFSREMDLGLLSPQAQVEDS
# [3] = tested on: HCT-116 human colorectal carcinoma cells; assay: Alamar Blue cell proliferation assay, HCT-116; type: cell-based; conditions: Table 4, read-out: AB: HCT-116
# Protocol: as §1, §2, §3, §4, §5, §6, §7, §8, §9, §10, §11
# recombinant human PIM2 = recombinant human PIM2 (Homo sapiens, UniProt Q9P1W9); assay: PIM-2 assay (radiometric); type: biochemical; conditions: Table 6; 15 μm ATP; read-out: PIM2: IC50 (15 μm ATP)
# Protocol: Test compounds dissolved and diluted in DMSO ([…]) were added to a reaction mixture comprising […] of 5× Reaction Buffer (40 mM MOPS pH 7.0, 5 mM EDTA), […] of recombinant human PIM2 solution (4 ng PIM-2 dissolved in dilution buffer (20 mM MOPS pH 7.0; EDTA 1 mM; 5% Glycerol; 0.01% Brij 35; […]; […] 2-mercaptoethanol; 1 mg/ml BSA)) and 8 ul of water. Reactions were initiated by the addition of 10 ul of ATP Solution (49% (15 mM MgCl2; 75 uM ATP) 1% ([γ-33P]ATP: Stock 1 mCi/100 μl; 3000 Ci/mmol (Perkin Elmer)) and 10 ul of substrate peptide solution ([…], dissolved in water at a concentration of 1 mM), Reactions were maintained for 10 min at 30° C. The reactions were quenched with 100 ul of 0.75% Phosphoric acid, then transferred to and filtrered through a Phosphocellulose filter plate (Millipore, MSPH-N6B-50). After washing each well 4 times with 0.75% Phosphoric acid, scintillation fluid (20 uL) was added to each well and the residual radioactivity was measured using a Wallac […] counter.
# [4] = MV4-11, Table 3, read-out: AB: MV-4-11
# [5] = Table 3, DMSO 4%, read-out: PIM1: IC50 (DMSO 4%)
# [6] = MIA PaCa-2, Table 3, read-out: AB: MiaPaCa
# [7] = K562, Table 3, read-out: AB: K-562
# [8] = MV4-11, Table 4, read-out: AB: MV-4-11
# [9] = MIA PaCa-2, Table 4, read-out: AB: MiaPaCa
# [10] = K562, Table 4, read-out: AB: K-562
# [11] = Table 4, 15 um ATP, read-out: PIM1: IC50 (15 um ATP)
# Chain of recombinant PIM-1 (P11309 whole entry): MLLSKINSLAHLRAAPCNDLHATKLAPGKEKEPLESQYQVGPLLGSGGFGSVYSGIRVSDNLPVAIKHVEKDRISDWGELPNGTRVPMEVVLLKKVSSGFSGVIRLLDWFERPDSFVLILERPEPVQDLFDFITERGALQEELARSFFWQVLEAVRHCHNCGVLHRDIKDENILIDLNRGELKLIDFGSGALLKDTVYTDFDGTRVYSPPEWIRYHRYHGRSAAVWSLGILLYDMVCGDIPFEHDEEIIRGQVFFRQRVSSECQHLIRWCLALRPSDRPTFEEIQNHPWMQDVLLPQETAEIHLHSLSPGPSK
# Chain of recombinant human PIM2 (Q9P1W9 whole entry): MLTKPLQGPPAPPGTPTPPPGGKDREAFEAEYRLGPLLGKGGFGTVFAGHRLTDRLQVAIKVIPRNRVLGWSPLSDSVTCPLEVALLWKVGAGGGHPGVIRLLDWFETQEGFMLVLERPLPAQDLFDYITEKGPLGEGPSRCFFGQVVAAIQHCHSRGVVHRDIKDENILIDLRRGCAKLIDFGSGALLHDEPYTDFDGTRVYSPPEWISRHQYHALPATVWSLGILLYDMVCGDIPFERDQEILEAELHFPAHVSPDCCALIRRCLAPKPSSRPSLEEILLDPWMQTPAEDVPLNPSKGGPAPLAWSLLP
smiles,measurement,setting,value
O=C1Nc2ccc(Cl)cc2/C1=C/c1ccc(-c2cnn(CCN3CCOCC3)c2)o1,IC50,MV-4-11; [4],0.198 µM
same,IC50,recombinant PIM-1; [5],< 1 µM
same,IC50,"[1]; Table 3, read-out: AB: PC3",> 30 µM
same,IC50,[2]; [6],> 10 µM
same,IC50,K-562; [7],2.32 µM
same,IC50,MDAMB-231,> 10 µM
CS(=O)(=O)Nc1ccc(-c2ccc(/C=C3\C(=O)Nc4ccc(Cl)cc43)o2)cc1,IC50,MV-4-11; [4],2.22 µM
same,IC50,recombinant PIM-1; [5],< 1 µM
same,IC50,"[1]; Table 3, read-out: AB: PC3",11 µM
same,IC50,[2]; [6],> 10 µM
same,IC50,K-562; [7],2.88 µM
same,IC50,MDAMB-231,> 10 µM
O=C1Nc2ccc(Cl)cc2/C1=C/c1ccc(-c2ccc3cc(O)ccc3c2)o1,IC50,MV-4-11; [4],0.189 µM
same,IC50,recombinant PIM-1; [5],< 1 µM
same,IC50,"[1]; Table 3, read-out: AB: PC3",12 µM
same,IC50,[2]; [6],> 10 µM
same,IC50,K-562; [7],> 10 µM
same,IC50,MDAMB-231,> 10 µM
NC(=O)c1cccc(-c2ccc(/C=C3\C(=O)Nc4ccc(Cl)cc43)o2)c1,IC50,MV-4-11; [4],1.91 µM
same,IC50,recombinant PIM-1; [5],< 1 µM
same,IC50,"[1]; Table 3, read-out: AB: PC3",> 30 µM
same,IC50,[2]; [6],> 10 µM
same,IC50,K-562; [7],> 10 µM
same,IC50,MDAMB-231,> 10 µM
CC(=O)Nc1cccc(-c2ccc(/C=C3\C(=O)Nc4ccc(Cl)cc43)o2)c1,IC50,MV-4-11; [4],0.748 µM
same,IC50,recombinant PIM-1; [5],< 1 µM
same,IC50,"[1]; Table 3, read-out: AB: PC3",2.68 µM
same,IC50,[2]; [6],> 10 µM
same,IC50,K-562; [7],> 10 µM
same,IC50,MDAMB-231,> 10 µM
O=C1Nc2ccc(Cl)cc2/C1=C\c1ccc(-c2cccc(C(=O)NCCCO)c2)o1,IC50,MV-4-11; [8],0.608 µM
same,IC50,"[1]; Table 4, read-out: AB: PC3",> 30 µM
same,IC50,phospho FLT3,> 10 µM
same,IC50,[2]; [9],> 30 µM
same,IC50,K-562; [10],> 10 µM
same,IC50,phospho BAD,3.5 µM
same,IC50,THP-1,> 30 µM
O=C1Nc2ccccc2/C1=C\c1ccc(-c2ccc(C(=O)NCCN3CCCC3)cc2)o1,IC50,recombinant human FLT-3,0.099 µM
CN(C)CCNC(=O)c1cccc(-c2ccc(/C=C3/C(=O)Nc4ccc(Cl)cc43)o2)c1 [drawing 232],IC50,MV-4-11; [8],2.99 µM
same,IC50,recombinant PIM-1; [11],0.289 µM
same,IC50,[3],1.19 µM
same,IC50,phospho FLT3,5.29 µM
same,IC50,[2]; [9],1.94 µM
same,IC50,K-562; [10],0.367 µM
same,IC50,phospho BAD,0.444 µM
O=C1Nc2ccc(Cl)cc2/C1=C\c1ccc(-c2cccc(C(=O)NCCCn3ccnc3)c2)o1 [drawing 233],IC50,MV-4-11; [8],0.067 µM
same,IC50,recombinant PIM-1; [11],0.376 µM
same,IC50,[3],0.314 µM
same,IC50,phospho FLT3,> 10 µM
same,IC50,[2]; [9],0.233 µM
same,IC50,K-562; [10],0.288 µM
same,IC50,phospho BAD,1.86 µM
CCN(CC)CCC(=O)Nc1cccc(-c2ccc(/C=C3/C(=O)Nc4ccccc43)o2)c1 [drawing 235],IC50,MV-4-11; [8],0.349 µM
same,IC50,recombinant PIM-1; [11],0.259 µM
same,IC50,"[1]; Table 4, read-out: AB: PC3",3.93 µM
same,IC50,phospho FLT3,> 10 µM
same,IC50,[2]; [9],0.101 µM
same,IC50,K-562; [10],0.472 µM
same,IC50,phospho BAD,1.41 µM
same,IC50,THP-1,3.77 µM
O=C(CN1CCCC1)Nc1cccc(-c2ccc(/C=C3/C(=O)Nc4ccccc43)o2)c1 [drawing 236],IC50,MV-4-11; [8],0.35 µM
same,IC50,recombinant PIM-1; [11],0.549 µM
same,IC50,"[1]; Table 4, read-out: AB: PC3",1.35 µM
same,IC50,phospho FLT3,> 10 µM
same,IC50,[2]; [9],> 10 µM
same,IC50,K-562; [10],1.37 µM
same,IC50,phospho BAD,2.13 µM
same,IC50,THP-1,3.86 µM
O=C1Nc2ccc(Cl)cc2/C1=C\c1ccc(-c2cccc(C(=O)NCCN(CCO)CCO)c2)o1 [drawing 238],IC50,MV-4-11; [8],0.288 µM
same,IC50,recombinant PIM-1; [11],0.081 µM
same,IC50,"[1]; Table 4, read-out: AB: PC3",> 30 µM
same,IC50,phospho FLT3,> 10 µM
same,IC50,[2]; [9],> 30 µM
same,IC50,K-562; [10],1.61 µM
same,IC50,phospho BAD,0.609 µM
same,IC50,THP-1,2.9 µM
C/C(=C1\C(=O)Nc2ccc(Cl)cc21)c1ccc(-c2ccc(C(=O)N3CCCN(C)CC3)cc2)o1 [drawing 258],IC50,recombinant human PIM2,< 1 µM
CN1CCCN(C(=O)c2ccc(-c3ccc(/C=C4/C(=O)Nc5ccc(Cl)cc54)o3)cc2)CC1 [drawing 259],IC50,recombinant human PIM2,< 1 µM
CCN(CC)CCNC(=O)c1ccc(-c2ccc(/C=C3/C(=O)Nc4ccc(Cl)cc43)o2)cc1 [drawing 260],IC50,recombinant human PIM2,< 1 µM
O=C1Nc2ccccc2/C1=C\c1ccc(-c2ccc(Cl)c(C(=O)NCCN3CCCC3)c2)o1 [drawing 261],IC50,recombinant human FLT-3,0.211 µM
O=C1Nc2ccc(F)cc2/C1=C\c1ccc(-c2cccc(C(=O)NC3CC3)c2)o1 [drawing 263],IC50,recombinant human FLT-3,0.306 µM
O=C1Nc2ccc(F)cc2/C1=C\c1ccc(-c2cccc(C(=O)NCc3ccncc3)c2)o1 [drawing 264],IC50,recombinant human FLT-3,0.147 µM
Cn1cncc1CNC(=O)c1cccc(-c2ccc(/C=C3/C(=O)Nc4ccc(F)cc43)o2)c1 [drawing 265],IC50,recombinant human FLT-3,0.1 µM
